# Tested on: not listed separately
# Assay: acute toxicity after oral administration to mice (LD50)
# Conditions: mouse, in vivo, 15 days mortality
# Protocol: The acute toxicity of the compounds of the present invention was studied after oral administration to mice. The products to be tested, suspended in a 1% tragacanth gum mucilage, were administered by means of an intragastric probe to groups of three male mice which had fasted since the preceding day. The doses tested are a function of the effect observed and can vary from 3,000 to 3 mg/kg or less. The mortality was recorded for 15 days. The lethal dose for 50% of the animals (LD50) was calculated according to the method of J. Litchfield and F. Wilcoxon, J. Pharmacol. Exp. Ther., 96, 99 (1949) and expressed in mg/kg. The effect of the products on the behaviour of the animals is observed until 5 to 6 hours after the treatment indicated above and after 24 hours, using a method derived from that of S. Irwin, described by R. A. Turner, Screening Methods in Pharmacology, Chapter 3, pages 22-34, Academic Press, 1965. If anomalies are noted, the observation is prolonged and smaller doses are tested.
row,Structure (SMILES),LD50 at 360 h [mg/kg]
1,"c1ccc(C(Cc2c[nH]cn2)c2ccccc2)cc1 [Compound 1, 4(5)-(2,2-diphenylethyl)-imidazole]",155
2,CC(c1c[nH]cn1)C(c1ccccc1)c1ccccc1 (stereo not shown) [Compound 4],> 300
3,"Cc1cccc(C(Cc2c[nH]cn2)c2ccccc2)c1 (stereo not shown) [Compound 9, 4(5)-{[2-(3-methylphenyl)-2-phenyl]ethyl}imidazole]",155
4,Cc1ccccc1C(Cc1c[nH]cn1)c1ccccc1 (stereo not shown) [Compound 12],155
5,"Clc1ccccc1C(Cc1c[nH]cn1)c1ccccc1 (stereo not shown) [Compound 13, 4(5)-{[2-(2-chlorophenyl)-2-phenyl]ethyl}imidazole]",172
6,"Fc1ccc(C(Cc2c[nH]cn2)c2ccccc2)cc1 (stereo not shown) [Compound 14, 4(5)-{[2-(4-fluorophenyl)-2-phenyl]ethyl}imidazole]",155
7,"Fc1ccc(C(Cc2c[nH]cn2)c2ccccc2F)cc1 (stereo not shown) [Compound 15, 4(5)-{[2-(2-fluorophenyl)-2-(4'-fluorophenyl)]ethyl}imidazole]",155
8,Cc1ccc(C)c(C(Cc2c[nH]cn2)c2ccccc2)c1 (stereo not shown) [Compound 16],> 300
9,"COc1ccc(C(Cc2c[nH]cn2)c2ccccc2)cc1 (stereo not shown) [Compound 17, 4(5)-{[2-(4-methoxyphenyl)-2-phenyl]ethyl}imidazole]",350
10,Cc1ccc(C(Cc2c[nH]cn2)c2ccccc2)cc1 (stereo not shown) [Compound 21],350

# Tested on: α2 adrenergic receptors of the central nervous system
# Assay: inhibition of the antihypertensive action of clonidine in spontaneously hypertensive rats (SHR)
# Type: in vivo, rat
# Conditions: 1 mg/kg p.o., clonidine 50 μg/kg s.c.
# Protocol: In the first study, carried out upon unanaesthetized spontaneously hypertensive rats (SHR rats), the ability of the compounds of the present invention to inhibit the antihypertensive action of clonidine was determined.
# The antihypertensive activity of clonidine results from an interaction with α2 adrenergic receptors of the central nervous system, i.e., central antihypertensive actions.
# In this test, two groups of SHR rats are utilized as follows. In the first group, prior to subcutaneous administration of clonidine (50 μg/kg), the SHR rats are treated with the compound to be tested (1 mg/kg p.o.) dissolved in a saline vehicle. The second group (control group) of SHR rats are treated with the saline vehicle only, prior to subcutaneous administration of clonidine.
# The arterial pressure is measured in the region of the median coccygeal artery according to the method of J. Roba, A. F. DeSchaepdrijver, Exp. Anim., 4, 147-162 (1971).
# The results of this assay summarized in Table II, column 5, are expressed as a percentage of inhibition of the effect of clonidine.
row,Structure (SMILES),α2 Antagonist (% Inhibition of the Antihypertension of Clonidine) [%]
1,"c1ccc(C(Cc2c[nH]cn2)c2ccccc2)cc1 [Compound 1, 4(5)-(2,2-diphenylethyl)-imidazole]",50
2,CC(c1c[nH]cn1)C(c1ccccc1)c1ccccc1 (stereo not shown) [Compound 4],68
3,"Cc1cccc(C(Cc2c[nH]cn2)c2ccccc2)c1 (stereo not shown) [Compound 9, 4(5)-{[2-(3-methylphenyl)-2-phenyl]ethyl}imidazole]",92
4,Cc1ccccc1C(Cc1c[nH]cn1)c1ccccc1 (stereo not shown) [Compound 12],78
5,"Clc1ccccc1C(Cc1c[nH]cn1)c1ccccc1 (stereo not shown) [Compound 13, 4(5)-{[2-(2-chlorophenyl)-2-phenyl]ethyl}imidazole]",46
6,"Fc1ccc(C(Cc2c[nH]cn2)c2ccccc2)cc1 (stereo not shown) [Compound 14, 4(5)-{[2-(4-fluorophenyl)-2-phenyl]ethyl}imidazole]",82
7,"Fc1ccc(C(Cc2c[nH]cn2)c2ccccc2F)cc1 (stereo not shown) [Compound 15, 4(5)-{[2-(2-fluorophenyl)-2-(4'-fluorophenyl)]ethyl}imidazole]",75
8,Cc1ccc(C)c(C(Cc2c[nH]cn2)c2ccccc2)c1 (stereo not shown) [Compound 16],69
9,"COc1ccc(C(Cc2c[nH]cn2)c2ccccc2)cc1 (stereo not shown) [Compound 17, 4(5)-{[2-(4-methoxyphenyl)-2-phenyl]ethyl}imidazole]",26
10,Cc1ccc(C(Cc2c[nH]cn2)c2ccccc2)cc1 (stereo not shown) [Compound 21],48

# Tested on: bicuculline-induced tonic extension in mice
# Assay: protection against bicuculline-induced tonic extension in mice
# Type: in vivo
# Conditions: Mus musculus, iv, 3 hours prior to bicuculline 0.7 mg/kg i.v., read-out: Anticonvulsive effect (versus Bicuculline) (% Protection)
# Protocol: In the second study the anti-convulsant effect of the compounds of the present invention was examined in two seizure models; bicuculline-induced tonic extension in mice and 3-mercaptopropionic acid (3-MPA)-induced tonic extension in mice.
# In the bicuculline study, the ability of the compounds of the present invention to protect against tonic extension (involving rigidity) was evaluated as follows. Each test compound was administered to a group of ten mice at a dose of 10 mg/kg, 3 hours prior to the i.v. administration of bicuculline (0.7 mg/kg). Anticonvulsant activity in this test is expressed as percentage of animals tested. The results are given in Table II, column 6, and indicate that several compounds display significant anticonvulsive activity in this test. The anticonvulsant effect of the compounds has also been tested with respect to the tonic extension induced by 3-mercaptopropionic acid (120 mg/kg subcutaneously) in mice.
row,Structure (SMILES),responders at 10 mg/kg [%]
1,"c1ccc(C(Cc2c[nH]cn2)c2ccccc2)cc1 [Compound 1, 4(5)-(2,2-diphenylethyl)-imidazole]",0
2,CC(c1c[nH]cn1)C(c1ccccc1)c1ccccc1 (stereo not shown) [Compound 4],40
3,"Cc1cccc(C(Cc2c[nH]cn2)c2ccccc2)c1 (stereo not shown) [Compound 9, 4(5)-{[2-(3-methylphenyl)-2-phenyl]ethyl}imidazole]",20
4,Cc1ccccc1C(Cc1c[nH]cn1)c1ccccc1 (stereo not shown) [Compound 12],50
5,"Clc1ccccc1C(Cc1c[nH]cn1)c1ccccc1 (stereo not shown) [Compound 13, 4(5)-{[2-(2-chlorophenyl)-2-phenyl]ethyl}imidazole]",20
6,"Fc1ccc(C(Cc2c[nH]cn2)c2ccccc2)cc1 (stereo not shown) [Compound 14, 4(5)-{[2-(4-fluorophenyl)-2-phenyl]ethyl}imidazole]",0
7,"Fc1ccc(C(Cc2c[nH]cn2)c2ccccc2F)cc1 (stereo not shown) [Compound 15, 4(5)-{[2-(2-fluorophenyl)-2-(4'-fluorophenyl)]ethyl}imidazole]",0
8,Cc1ccc(C)c(C(Cc2c[nH]cn2)c2ccccc2)c1 (stereo not shown) [Compound 16],20
9,"COc1ccc(C(Cc2c[nH]cn2)c2ccccc2)cc1 (stereo not shown) [Compound 17, 4(5)-{[2-(4-methoxyphenyl)-2-phenyl]ethyl}imidazole]",10
10,Cc1ccc(C(Cc2c[nH]cn2)c2ccccc2)cc1 (stereo not shown) [Compound 21],50

# Tested on: α1 -adrenergic receptors
# Assay: binding to α1-adrenergic receptors on rat brain homogenates (3H-WB 4101)
# Conditions: 1.6 nM 3H-WB 4101
# Protocol: The activity of the compounds according to the invention with respect to binding of the α-adrenergic receptors was determined in vitro according to a method deriving from the works of B. R. Rouot et al., Life Sci., 25, 769 (1979) and of D. U'Prichard et al., Mol. Pharmacol., 13, 454 (1977). This method consists in measuring the binding to the receptor on rat brain homogenates, by marking by means of a specific tritriated ligand placed in competition with the product to be tested.
# In the presenct case the binding to the α1 -adrenergic receptors was measured by means of 1.6 nM of ^3 H-WB 4101 and the binding to the α2 -adrenergic receptors by means of 0.7 nM of ^3 H-p. aminoclonidine, the non-specific binding being determined by 1,000 nM of phentolamine. The results are given in Table II, column 3, and are expressed in terms of percentage of inhibition of the specific binding of 10^-7 molar compound concentration.
# (2) The specific binding is the total binding less the nonspecific
# binding. The total binding is the binding in the absence of nonradioactiv
# drug. The nonspecific binding is the binding in the presence of 1,000 nM
# of phentolamine. The products of the invention are tested at a
# concentration of 10^-7 molar.
row,Structure (SMILES),% Inhibition of the Specific Binding at 10^-7 M for α1 Recep. [%]
1,"c1ccc(C(Cc2c[nH]cn2)c2ccccc2)cc1 [Compound 1, 4(5)-(2,2-diphenylethyl)-imidazole]",17
2,CC(c1c[nH]cn1)C(c1ccccc1)c1ccccc1 (stereo not shown) [Compound 4],4
3,"Cc1cccc(C(Cc2c[nH]cn2)c2ccccc2)c1 (stereo not shown) [Compound 9, 4(5)-{[2-(3-methylphenyl)-2-phenyl]ethyl}imidazole]",4
4,Cc1ccccc1C(Cc1c[nH]cn1)c1ccccc1 (stereo not shown) [Compound 12],0
5,"Clc1ccccc1C(Cc1c[nH]cn1)c1ccccc1 (stereo not shown) [Compound 13, 4(5)-{[2-(2-chlorophenyl)-2-phenyl]ethyl}imidazole]",7
6,"Fc1ccc(C(Cc2c[nH]cn2)c2ccccc2)cc1 (stereo not shown) [Compound 14, 4(5)-{[2-(4-fluorophenyl)-2-phenyl]ethyl}imidazole]",0
7,"Fc1ccc(C(Cc2c[nH]cn2)c2ccccc2F)cc1 (stereo not shown) [Compound 15, 4(5)-{[2-(2-fluorophenyl)-2-(4'-fluorophenyl)]ethyl}imidazole]",7
8,Cc1ccc(C)c(C(Cc2c[nH]cn2)c2ccccc2)c1 (stereo not shown) [Compound 16],0
9,"COc1ccc(C(Cc2c[nH]cn2)c2ccccc2)cc1 (stereo not shown) [Compound 17, 4(5)-{[2-(4-methoxyphenyl)-2-phenyl]ethyl}imidazole]",6
10,Cc1ccc(C(Cc2c[nH]cn2)c2ccccc2)cc1 (stereo not shown) [Compound 21],4

# From US4738979A, “α2 -blocking derivatives of imidazole” (G. D. Searle & Co., priority 1985, dated 1988)
